System: patients with advanced solid tumors
Assay: Phase 1 trial: adverse events (CTCAE), DLT and MTD
Type: in vivo, human
Procedure: The phase 1 trial was a two-part, multicenter, open-label, nonrandomized study to evaluate the safety and preliminary efficacy of HA121-28.
Safety, tolerability, and PK of HA121-28 was assessed in dose-escalation part. The single-patient accelerated titration was carried out at 25 mg and 50 mg; then, the dose escalation proceeded according to a “3 + 3” design in dose range of 100 to 800 mg. Escalation to a higher dose level was considered by the satisfactory review of safety results from the previous lower dose during the first cycle.
The dose-expansion part aims to further access the safety and efficacy of HA121-28 at the selected doses based on data from the dose-escalation part. The RP2D was determined by investigators in view of a thorough review of safety, PK, and efficacy results.
In phase 1 trial, during the dose-escalation part, patients first administered HA121-28 in a single ascending dose under the fasted state, then followed up for seven days. Then, patients received ascending doses of HA121-28 (q.d.) on a 21-day on and 7-day off treatment scheme for a 28-day cycle. For patients deemed beneficial from the treatment by investigators, treatment could remain until disease progression, or they discontinued from the study. In the dose-expansion part of phase 1, as well as phase 2, patients received HA121-28 (q.d.) at the selected doses on a 21-day on and 7-day off treatment scheme until disease progression, or they discontinued from the study.
Treatment-emergent adverse events (TEAEs) were documented during the entire study period. The predefined adverse event of special interest (AESI) was ≥ grade 3 prolonged QT interval. Tumor imaging was performed using contrast-enhanced computed tomography or magnetic resonance imaging at screening, Day 28 of the first cycle, then approximately every eight weeks till the end of the study for phase 1; in phase 2, imaging was scheduled at screening, and every eight weeks during the first 40 weeks, followed by every 12 weeks for the rest of the study period. RECIST 1.1 was used by the independent review committee or investigators for assessment of tumor response. After the original assessment, a repeated assessment was required around four weeks later to confirm a complete or partial response.
The primary endpoints of phase 1 were to investigate the MTD, dose-limiting toxicities, and the incidence and severity of TEAEs. Each TEAE was graded according to the Common Terminology Criteria for Adverse Events (CTCAE, version 5.0) and coded by Medical Dictionary for Regulatory Activities (MedDRA, version 21.0). The secondary endpoints included calculating PK parameters, assessing the ORR and DCR at the recommended dose by investigators as per RECIST 1.1. The exploratory endpoint was PFS.
If grade 2 or higher toxicity related to the study drug occurs in Groups 1 and 2 (as determined by the investigator), dose escalation will proceed using a 3+3 design starting from that dose level. If no DLT is observed at the 800 mg/d dose level after dose escalation, a meeting of investigators will be convened to decide whether to proceed with further dose escalation based on the available PK data, safety, and tolerability information.
5. Definition of DLT and MTD
The following events related to the study drug (including those that are definitely related, highly likely to be related, and possibly related):
(1) Grade 4 hematologic toxicity or grade 3 neutropenia accompanied by a fever of 38.5℃ or higher, or grade 3 thrombocytopenia accompanied by severe bleeding.
(2) Patients who discontinued the medication for more than 7 days due to unresolved toxicity reactions or who discontinued the medication more than twice due to toxicity […]
(3) In the context of supportive treatment, diarrhea of grade 2 lasting more than 7 days, or grade 3 diarrhea lasting more than 3 days.

COc1cc2c(Nc3ccc(Br)cc3F)ncnc2cc1OCCCCN(C)C.Cl.Cl [HA121-28, N-(4-bromo-2-fluorophenyl)-7-(4-(dimethylamino)butoxy)-6-methoxy quinazolin-4-amine dihydrochloride]
0 No. (%): Serious TEAE: Cardiac tamponade (Phase 1, 600 mg (N=64)) | Serious TEAE: Coronary artery atherosclerosis (Phase 1, 600 mg (N=64)) | Serious TEAE: Death (Phase 1, 600 mg (N=64)) | Serious TEAE: Dyspnea (Phase 1, 600 mg (N=64)) | Serious TEAE: Embolism (Phase 1, 600 mg (N=64)) | Serious TEAE: Erythema multiforme (Phase 1, 600 mg (N=64)) | Serious TEAE: Headache (Phase 1, 600 mg (N=64)) | Serious TEAE: Hydronephrosis (Phase 1, 600 mg (N=64)) | Serious TEAE: Hypertension (Phase 1, 600 mg (N=64)) | Serious TEAE: Intestinal obstruction (Phase 1, 600 mg (N=64)) | Serious TEAE: Intra-abdominal fluid collection (Phase 1, 600 mg (N=64)) | Serious TEAE: Intracranial tumor hemorrhage (Phase 1, 600 mg (N=64)) | Serious TEAE: Lung adenocarcinoma (Phase 1, 600 mg (N=64)) | Serious TEAE: Multiple organ dysfunction syndrome (Phase 1, 600 mg (N=64)) | Serious TEAE: Nephrolithiasis (Phase 1, 600 mg (N=64)) | Serious TEAE: Pleural effusion (Phase 1, 600 mg (N=64)) | Serious TEAE: Pneumonia (Phase 1, 600 mg (N=64)) | Serious TEAE: Pneumonitis (Phase 1, 600 mg (N=64)) | Serious TEAE: Pulmonary embolism (Phase 1, 600 mg (N=64)) | Serious TEAE: Pyrexia (Phase 1, 600 mg (N=64)) | Serious TEAE: Rectal hemorrhage (Phase 1, 600 mg (N=64)) | Serious TEAE: Respiratory failure (Phase 1, 600 mg (N=64)) | Serious TEAE: Seizure (Phase 1, 600 mg (N=64)) | Serious TEAE: Septic shock (Phase 1, 600 mg (N=64)) | Serious TRAE: Abdominal Pain (Phase 1, 600 mg (N=64)) | Serious TRAE: Abdominal distension (Phase 1, 600 mg (N=64)) | Serious TRAE: Acute cholecystitis (Phase 1, 600 mg (N=64)) | Serious TRAE: Acute pancreatitis (Phase 1, 600 mg (N=64)) | Serious TRAE: Aortic intramural hematoma (Phase 1, 600 mg (N=64)) | Serious TRAE: Arrhythmia (Phase 1, 600 mg (N=64)) | Serious TRAE: COVID-19 (Phase 1, 600 mg (N=64)) | Serious TRAE: Cardiac tamponade (Phase 1, 600 mg (N=64)) | Serious TRAE: Coronary artery atherosclerosis (Phase 1, 600 mg (N=64)) | Serious TRAE: Death (Phase 1, 600 mg (N=64)) | Serious TRAE: Dyspnea (Phase 1, 600 mg (N=64)) | Serious TRAE: Embolism (Phase 1, 600 mg (N=64)) | Serious TRAE: Erythema multiforme (Phase 1, 600 mg (N=64)) | Serious TRAE: Headache (Phase 1, 600 mg (N=64)) | Serious TRAE: Hydronephrosis (Phase 1, 600 mg (N=64)) | Serious TRAE: Hypertension (Phase 1, 600 mg (N=64)) | Serious TRAE: Intestinal obstruction (Phase 1, 600 mg (N=64)) | Serious TRAE: Intra-abdominal fluid collection (Phase 1, 600 mg (N=64)) | Serious TRAE: Intracranial tumor hemorrhage (Phase 1, 600 mg (N=64)) | Serious TRAE: Liver injury (Phase 1, 600 mg (N=64)) | Serious TRAE: Lung adenocarcinoma (Phase 1, 600 mg (N=64)) | Serious TRAE: Multiple organ dysfunction syndrome (Phase 1, 600 mg (N=64)) | Serious TRAE: Nephrolithiasis (Phase 1, 600 mg (N=64)) | Serious TRAE: Platelet counts decreased (Phase 1, 600 mg (N=64)) | Serious TRAE: Pleural effusion (Phase 1, 600 mg (N=64)) | Serious TRAE: Pneumonia (Phase 1, 600 mg (N=64)) | Serious TRAE: Pneumonitis (Phase 1, 600 mg (N=64)) | Serious TRAE: Pulmonary embolism (Phase 1, 600 mg (N=64)) | Serious TRAE: Pyrexia (Phase 1, 600 mg (N=64)) | Serious TRAE: Rectal hemorrhage (Phase 1, 600 mg (N=64)) | Serious TRAE: Respiratory failure (Phase 1, 600 mg (N=64)) | Serious TRAE: Seizure (Phase 1, 600 mg (N=64)) | Serious TRAE: Septic shock (Phase 1, 600 mg (N=64)) | Serious TRAE: Upper respiratory tract infection (Phase 1, 600 mg (N=64)) | Serious TEAE: ALT increased (Phase 1, 800 mg (N=3)) | Serious TEAE: AST increased (Phase 1, 800 mg (N=3)) | Serious TEAE: Abdominal Pain (Phase 1, 800 mg (N=3)) | Serious TEAE: Abdominal distension (Phase 1, 800 mg (N=3)) | Serious TEAE: Acute cholecystitis (Phase 1, 800 mg (N=3)) | Serious TEAE: Acute pancreatitis (Phase 1, 800 mg (N=3)) | Serious TEAE: Anal abscess (Phase 1, 800 mg (N=3)) | Serious TEAE: Aortic intramural hematoma (Phase 1, 800 mg (N=3)) | Serious TEAE: Arrhythmia (Phase 1, 800 mg (N=3)) | Serious TEAE: Blood bilirubin increased (Phase 1, 800 mg (N=3)) | Serious TEAE: Blood creatinine increased (Phase 1, 800 mg (N=3)) | Serious TEAE: COVID-19 (Phase 1, 800 mg (N=3)) | Serious TEAE: Cardiac tamponade (Phase 1, 800 mg (N=3)) | Serious TEAE: Coronary artery atherosclerosis (Phase 1, 800 mg (N=3)) | Serious TEAE: Death (Phase 1, 800 mg (N=3)) | Serious TEAE: Diarrhea (Phase 1, 800 mg (N=3)) | Serious TEAE: Drug eruption (Phase 1, 800 mg (N=3)) | Serious TEAE: Dyspnea (Phase 1, 800 mg (N=3)) | Serious TEAE: Embolism (Phase 1, 800 mg (N=3)) | Serious TEAE: Erythema multiforme (Phase 1, 800 mg (N=3))
1 (33.3) No. (%): Serious TEAE: Any (Phase 1, 800 mg (N=3))
2 (3.1) No. (%): Serious TEAE: Diarrhea (Phase 1, 600 mg (N=64)) | Serious TEAE: Malignant neoplasm progression (Phase 1, 600 mg (N=64)) | Serious TEAE: Nausea (Phase 1, 600 mg (N=64)) | Serious TEAE: Vomiting (Phase 1, 600 mg (N=64)) | Serious TEAE: Weight loss (Phase 1, 600 mg (N=64)) | Serious TRAE: Diarrhea (Phase 1, 600 mg (N=64)) | Serious TRAE: Nausea (Phase 1, 600 mg (N=64)) | Serious TRAE: Vomiting (Phase 1, 600 mg (N=64)) | Serious TRAE: Weight loss (Phase 1, 600 mg (N=64))
3 (4.7) No. (%): Serious TEAE: Rash (Phase 1, 600 mg (N=64)) | Serious TRAE: Rash (Phase 1, 600 mg (N=64))
13 (20.3) No. (%): Serious TRAE: Any (Phase 1, 600 mg (N=64))
1 (1.6) No. (%): Serious TEAE: Drug eruption (Phase 1, 600 mg (N=64)) | Serious TEAE: Hemoptysis (Phase 1, 600 mg (N=64)) | Serious TEAE: Hypoalbuminemia (Phase 1, 600 mg (N=64)) | Serious TEAE: Liver injury (Phase 1, 600 mg (N=64)) | Serious TEAE: Platelet counts decreased (Phase 1, 600 mg (N=64)) | Serious TEAE: Prolonged QT interval (Phase 1, 600 mg (N=64)) | Serious TEAE: Sudden cardiac arrest (Phase 1, 600 mg (N=64)) | Serious TEAE: Sudden death (Phase 1, 600 mg (N=64)) | Serious TEAE: Upper respiratory tract infection (Phase 1, 600 mg (N=64)) | Serious TEAE: Ventricular tachycardia (Phase 1, 600 mg (N=64)) | Serious TRAE: ALT increased (Phase 1, 600 mg (N=64)) | Serious TRAE: AST increased (Phase 1, 600 mg (N=64)) | Serious TRAE: Anal abscess (Phase 1, 600 mg (N=64)) | Serious TRAE: Blood bilirubin increased (Phase 1, 600 mg (N=64)) | Serious TRAE: Blood creatinine increased (Phase 1, 600 mg (N=64)) | Serious TRAE: Drug eruption (Phase 1, 600 mg (N=64)) | Serious TRAE: Hemoptysis (Phase 1, 600 mg (N=64)) | Serious TRAE: Hypoalbuminemia (Phase 1, 600 mg (N=64)) | Serious TRAE: Malignant neoplasm progression (Phase 1, 600 mg (N=64)) | Serious TRAE: Prolonged QT interval (Phase 1, 600 mg (N=64)) | Serious TRAE: Sudden cardiac arrest (Phase 1, 600 mg (N=64)) | Serious TRAE: Sudden death (Phase 1, 600 mg (N=64)) | Serious TRAE: Ventricular tachycardia (Phase 1, 600 mg (N=64))
